Like-named read-outs stand apart in the source and are kept apart here.
Tests used:
[1] = system: nicotinic AChR; settings: cited from earlier work
[2] = biological target: Acetylcholinesterase (Eel) (Electrophorus electricus, UniProt O42275); test: biochemical
[3] = biological target: Butyrylcholinesterase (Cortex) (Homo sapiens, UniProt P06276); test: biochemical
[4] = biological target: Acetylcholinesterase (Caudate) (Homo sapiens, UniProt P22303); test: biochemical
[5] = biological target: Acetylcholinesterase (RBC) (Homo sapiens, UniProt P22303); test: biochemical
Sequence of Acetylcholinesterase (RBC) (P22303-2 with tags, fused parts or gaps limits assumed): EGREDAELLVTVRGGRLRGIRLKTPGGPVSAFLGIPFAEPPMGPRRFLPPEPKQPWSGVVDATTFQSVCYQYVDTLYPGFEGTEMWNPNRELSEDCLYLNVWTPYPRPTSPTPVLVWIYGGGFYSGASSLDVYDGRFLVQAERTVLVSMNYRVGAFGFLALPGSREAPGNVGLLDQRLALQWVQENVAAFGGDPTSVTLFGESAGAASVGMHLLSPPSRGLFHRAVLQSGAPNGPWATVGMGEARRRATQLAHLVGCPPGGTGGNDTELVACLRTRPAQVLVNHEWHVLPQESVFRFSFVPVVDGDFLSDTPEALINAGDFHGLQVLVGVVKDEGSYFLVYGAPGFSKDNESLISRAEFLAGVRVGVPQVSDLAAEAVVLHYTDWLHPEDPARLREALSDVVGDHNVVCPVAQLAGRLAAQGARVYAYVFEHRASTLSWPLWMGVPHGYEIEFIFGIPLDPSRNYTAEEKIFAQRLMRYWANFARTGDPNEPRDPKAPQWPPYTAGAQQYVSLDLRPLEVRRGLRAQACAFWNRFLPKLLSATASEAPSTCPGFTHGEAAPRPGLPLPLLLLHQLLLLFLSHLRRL

[6] = biological target: Butyrylcholinesterase (Plasma) (Homo sapiens, UniProt P06276); test: biochemical
Sequence of Butyrylcholinesterase (Plasma) (P06276 29-602): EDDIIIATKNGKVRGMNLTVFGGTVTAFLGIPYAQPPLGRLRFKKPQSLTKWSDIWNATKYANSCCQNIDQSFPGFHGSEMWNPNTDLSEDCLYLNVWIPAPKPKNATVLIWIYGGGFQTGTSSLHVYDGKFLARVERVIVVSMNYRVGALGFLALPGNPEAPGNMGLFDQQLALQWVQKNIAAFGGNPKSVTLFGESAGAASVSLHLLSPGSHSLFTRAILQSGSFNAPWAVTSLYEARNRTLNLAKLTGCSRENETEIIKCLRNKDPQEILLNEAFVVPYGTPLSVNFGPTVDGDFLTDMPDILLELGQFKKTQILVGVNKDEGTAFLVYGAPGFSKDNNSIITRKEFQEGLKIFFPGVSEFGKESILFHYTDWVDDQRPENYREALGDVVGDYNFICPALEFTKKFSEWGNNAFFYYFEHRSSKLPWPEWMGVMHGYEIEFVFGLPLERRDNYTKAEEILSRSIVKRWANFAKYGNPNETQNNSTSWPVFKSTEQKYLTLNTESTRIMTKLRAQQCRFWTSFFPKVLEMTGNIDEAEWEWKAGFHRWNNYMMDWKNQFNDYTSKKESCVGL

[7] = biological target: Acetylcholinesterase (Cortex) (Homo sapiens, UniProt P22303); test: biochemical
Sequence of Acetylcholinesterase (Cortex) (P22303 32-614): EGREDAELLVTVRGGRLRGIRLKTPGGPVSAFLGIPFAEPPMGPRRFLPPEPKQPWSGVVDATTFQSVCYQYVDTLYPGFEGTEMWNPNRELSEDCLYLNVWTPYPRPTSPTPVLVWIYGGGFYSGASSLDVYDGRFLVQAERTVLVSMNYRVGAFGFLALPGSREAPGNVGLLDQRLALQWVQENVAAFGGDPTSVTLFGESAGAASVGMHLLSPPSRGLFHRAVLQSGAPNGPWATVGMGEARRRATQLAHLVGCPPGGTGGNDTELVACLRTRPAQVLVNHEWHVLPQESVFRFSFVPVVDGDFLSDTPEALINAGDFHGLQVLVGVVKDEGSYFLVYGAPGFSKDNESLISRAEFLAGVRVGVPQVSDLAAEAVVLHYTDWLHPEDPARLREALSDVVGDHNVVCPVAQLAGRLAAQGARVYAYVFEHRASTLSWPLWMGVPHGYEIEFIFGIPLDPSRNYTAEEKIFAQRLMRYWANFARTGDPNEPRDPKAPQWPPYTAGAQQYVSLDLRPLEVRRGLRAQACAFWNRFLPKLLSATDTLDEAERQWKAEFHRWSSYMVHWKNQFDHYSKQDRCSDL

[8] = system: acetyl- and butyryl-cholinesterase; assay type: biochemical
[9] = system: acetylcholinesterase; assay type: biochemical; settings: for IC50: read-out: IC50, antiacetylcholinesterase (approximate)
[10] = system: neuromuscular AChR; settings: cited from earlier work
[11] = system: butyrylcholinesterase; assay type: biochemical
[12] = read-out: IC50 Acetylcholinesterase Eel
[13] = read-out: IC50 Acetylcholinesterase Caudate
[14] = read-out: IC50 Acetylcholinesterase Cortex
[15] = read-out: IC50 Acetylcholinesterase RBC
[16] = read-out: IC50 Butyrylcholinesterase Cortex
[17] = read-out: IC50 Butyrylcholinesterase Plasma

Sequence of Acetylcholinesterase (Caudate) (P22303 32-614): as above
Sequence of Acetylcholinesterase (Eel) (O42275 24-633): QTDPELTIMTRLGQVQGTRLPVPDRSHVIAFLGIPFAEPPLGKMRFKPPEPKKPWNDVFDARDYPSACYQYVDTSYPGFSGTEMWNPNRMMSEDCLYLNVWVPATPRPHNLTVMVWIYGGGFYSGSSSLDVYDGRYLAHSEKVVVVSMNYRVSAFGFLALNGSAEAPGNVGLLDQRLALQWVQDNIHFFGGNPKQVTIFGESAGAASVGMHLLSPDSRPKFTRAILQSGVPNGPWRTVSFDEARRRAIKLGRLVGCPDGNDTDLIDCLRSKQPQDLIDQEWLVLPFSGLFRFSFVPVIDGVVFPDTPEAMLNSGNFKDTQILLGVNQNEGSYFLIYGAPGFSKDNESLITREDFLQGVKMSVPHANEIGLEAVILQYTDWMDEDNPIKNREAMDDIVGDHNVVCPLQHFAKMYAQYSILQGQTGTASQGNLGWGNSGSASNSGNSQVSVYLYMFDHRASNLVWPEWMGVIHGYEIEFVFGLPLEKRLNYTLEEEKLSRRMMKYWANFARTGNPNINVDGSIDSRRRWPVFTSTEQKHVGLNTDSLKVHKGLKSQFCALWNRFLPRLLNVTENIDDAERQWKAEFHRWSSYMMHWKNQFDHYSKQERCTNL
Sequence of Butyrylcholinesterase (Cortex) (P06276 29-602): as the sequence (P06276 29-602) above

Row | Compound | IC50 [2] [µM] | IC50 [3] [µM] | IC50 [4] [µM] | IC50 [5] [µM] | IC50 [6] [µM] | specificity acetyl- versus butyryl-cholinesterase [8] | further results
1 | c1ccc(C2(N3CCCCC3)CCCCC2)cc1 [phencyclidine] | – | – | – | – | – | – | modification of AChR activation [1]: modify noncompetitively the activation of the AChR
2 | C=CC[N+](C)(C)c1ccc(CCC(=O)CCc2ccc([N+](C)(C)CC=C)cc2)cc1 [BW284c51, reference compound] | 0.0073 | – | – | – | – | – | –
3 | CN1CC[C@]2(C)c3cc(O)ccc3N(C)[C@H]12 [(+)eseroline, reference compound] | > 10 | > 10 | > 10 | > 10 | > 10 | – | –
4 | CNC(=O)Oc1ccc2c(c1)C1(C)CC[N+](C)(C)C1N2C (single isomer, unassigned) [YU-117, methosulfate of (-)physostigmine] | – | – | – | – | – | more potent against acetylcholinesterase than against butyrylcholinesterase | IC50 [2, 12]: 0.0335 ± 0.0006 µM; IC50 [4, 13]: 0.0283 ± 0.0037 µM; IC50 [7, 14]: 0.0371 ± 0.0066 µM; IC50 [5, 15]: 0.0294 ± 0.0052 µM; antiacetylcholinesterase potency in words [9]: as potent against acetylcholinesterase as physostigmine itself
5 | C=CCN1CC[C@@]2(C)c3cc(OC(=O)NC)ccc3N(C)[C@@H]12 [YU-110, N--allyl physostigmine] | – | 0.0156 ± 0.0069 | – | – | 0.00265 ± 0.00201 | equipotent versus both acetyl- and butyryl-cholinesterase | antiacetylcholinesterase potency in words [9]: as potent against acetylcholinesterase as physostigmine itself
6 | CNC(=O)Oc1ccc2c(c1)[C@]1(C)CCN(C)[C@@H]1N2C [(-) physo, (-)-physostigmine] | – | – | – | – | – | – | properties at the neuromuscular AChR [10]: blocking as well as agonist properties
7 | CN1CC[C@@]2(C)c3cc(O)ccc3N(C)[C@@H]12 [(-)eseroline, (-)-eseroline, reference compound] | > 10 | > 10 | > 10 | > 10 | > 10 | – | –
8 | CN1CC[C@@]2(C)c3cc(OC(=O)Nc4ccccc4)ccc3N(C)[C@@H]12 [YU-79, eseroline phenylcarbamate] | – | – | – | – | – | relatively specific for acetyl- rather than butyryl-cholinesterase | IC50 [2, 12]: 0.35 ± 0.09 µM; IC50 [3, 16]: 2.5 µM; IC50 [4, 13]: 0.021 ± 0.001 µM; IC50 [7, 14]: 0.036 ± 0.003 µM; IC50 [5, 15]: 0.024 ± 0.006 µM; IC50 [9]: ~0.03 µM; IC50 [6, 17]: 1.3 µM
9 | Ethoprop [reference compound] | – | – | – | – | – | – | IC50 [2, 12]: 120 µM; IC50 [3, 16]: 0.21 µM; IC50 [6, 17]: 0.3 µM
10 | COc1ccc(NC(=O)Oc2ccc3c(c2)[C@]2(C)CCN(C)[C@@H]2N3C)cc1 [YU-114, methoxyphenyl carbamoyleseroline] | 1.68 ± 0.38 | 0.224 ± 0.047 | – | – | 0.0276 ± 0.0018 | approximately equally potent against both enzymes | increase of antibutyrylcholinesterase potency [11]: ten-fold; reduction of antiacetylcholinesterase potency [9]: approximately 10 fold
11 | CNC(=O)Oc1ccc2c(c1)[C@]1(C)CCN(CCc3ccccc3)[C@@H]1N2C [YU-112, N--phenylethyl physostigmine] | – | – | 0.191 ± 0.056 | 0.213 ± 0.038 | – | – | IC50 [7]: 0.155 ± 0.028 µM
12 | CCCCCCCCNC(=O)Oc1ccc2c(c1)[C@]1(C)CCN(C)[C@@H]1N2C [YU-71, eseroline octylcarbamate] | – | 0.0087 ± 0.0037 | – | – | 0.0036 ± 0.001 | – | –
13 | CN1CC[C@@]2(C)c3cc(OC(=O)Nc4ccc(Cl)cc4)ccc3N(C)[C@@H]12 [YU-116, chlorophenyl carbamoyleseroline] | 1.8 ± 0.085 | 4.46 ± 1.29 | 0.448 ± 0.029 | 0.654 ± 0.032 | 4 ± 0.052 | relatively specific for acetyl- rather than butyryl-cholinesterase | IC50 [7]: 0.417 ± 0.088 µM; antiacetylcholinesterase potency in words [9]: much less against acetylcholinesterase; reduction of antiacetylcholinesterase potency [9]: approximately 10 fold; IC50 [9]: ~0.5 µM
14 | CN1CC[C@@]2(C)c3cc(OC(=O)NCc4ccccc4)ccc3N(C)[C@@H]12 [YU-69-1, eseroline benzylcarbamate] | 0.46 ± 0.08 | 0.02 ± 0.011 | 0.027 ± 0.01 | 0.026 ± 0.008 | 0.0027 ± 0.0016 | – | IC50 [7]: 0.024 ± 0.005 µM
15 | CCCCNC(=O)Oc1ccc2c(c1)[C@]1(C)CCN(C)[C@@H]1N2C [YU-120, butylcabamoyl eseroline] | 0.152 ± 0.009 | 0.016 ± 0.0044 | 0.0203 ± 0.0068 | 0.0176 ± 0.0091 | 0.00413 ± 0.00125 | – | IC50 [7]: 0.0208 ± 0.0037 µM; effect of shortening the side chain on potency against acetyl- or butyryl-cholinesterase [8]: does not alter the potency of the compound against either acetyl- or butyryl-cholinesterase
16 | CC(C)NP(=O)(NC(C)C)OP(=O)(NC(C)C)NC(C)C [iso-OMPA, reference compound] | > 1000 | – | – | – | – | – | –
17 | CN1CC[C@@]2(C)c3cc(O)ccc3N(C)[C@@H]12 (relative stereo) [(+/-)eseroline, reference compound] | > 10 | > 10 | > 10 | > 10 | > 10 | – | –
18 | CNC(=O)Oc1ccc2c(c1)[C@]1(C)CCN[C@@H]1N2C [YU-96, N--norphysostigmine] | – | – | – | – | – | equipotent versus both acetyl- and butyryl-cholinesterase | antiacetylcholinesterase potency in words [9]: as potent against acetylcholinesterase as physostigmine itself

From US4900748A (priority 1988, dated 1990)
